Reference: patent publication US11312727B1, “Macrocyclic flu endonuclease inhibitors” (Janssen BioPharma, Inc., priority 2018, dated 2022)

Columns and labels:
in vitro = conditions: human, CC50, uninfected A549 cells, CellTiter-Glo
[1] = tested on: Influenza strain A549 A/WSN/33 (H1N1); test: microbe, parasite or virus in culture; assay type: cell-based; conditions: Influenza A virus, A549, 20 h, A549 cells, influenza A/WSN/33 (H1N1), 20 hours incubation; read-out: A549_A(H1N1) EC50

Row | SMILES | CC50 (in vitro) [nM] | EC50 [1] [nM]
1 | O=C1c2c(O)c(=O)ccn2N2CN1C/C=C\COc1cccc3c1[C@H]2c1ccccc1OC3 (single isomer, unassigned) [Compound 53A, (21a*R,Z)-16-hydroxy-6,10,13,21a-tetrahydro-7,8-(epiprop[1]en[1]yl[3]ylidene)-14,21-methanobenzo[6,7]oxepino[4,5-c]pyrido[1,2-f][1]oxa[5,6,9]triazacyclotridecine-15,17-dione] | > 2000 | 34
2 | O=C1c2c(O)c(=O)ccn2N2CN1C/C=C\COc1cccc3c1[C@@H]2c1ccccc1OC3 (single isomer, unassigned) [Compound 53B, (21a*S,Z)-16-hydroxy-6,10,13,21a-tetrahydro-7,8-(epiprop[1]en[1]yl[3]ylidene)-14,21-methanobenzo[6,7]oxepino[4,5-c]pyrido[1,2-f][1]oxa[5,6,9]triazacyclotridecine-15,17-dione] | > 2000 | > 1000
3 | O=C1c2c(O)c(=O)ccn2N2CN1CCC/C=C\c1ccccc1[C@H]2c1ccccc1 (single isomer, unassigned) [Compound 54A, (16*R,*Z)-4-hydroxy-16-phenyl-7,8,9,16-tetrahydro-6,17-methanobenzo[k]pyrido[1,2-b][1,2,5]triazacyclotridecine-3,5-dione] | > 2000 | > 1000
4 | O=C1c2c(O)c(=O)ccn2N2CN1CCC/C=C\c1ccccc1[C@@H]2c1ccccc1 (single isomer, unassigned) [Compound 54B, (16*S,*Z)-4-hydroxy-16-phenyl-7,8,9,16-tetrahydro-6,17-methanobenzo[k]pyrido[1,2-b][1,2,5]triazacyclotridecine-3,5-dione] | > 2000 | 33
5 | O=C1c2c(O)c(=O)ccn2N2CN1C/C=C\CCc1cnccc1[C@H]2c1ccccc1 (single isomer, unassigned) [Compound 56A, (18*R,*Z)-12-hydroxy-18-phenyl-5,6,9,18-tetrahydro-10,17-methanodipyrido[1,2-b:3′,4′-k][1,2,5]triazacyclotridecine-11,13-dione] | > 2000 | > 1000
6 | O=C1c2c(O)c(=O)ccn2N2CN1C/C=C\CCc1cnccc1[C@@H]2c1ccccc1 (single isomer, unassigned) [Compound 56B, (18*S,*Z)-12-hydroxy-18-phenyl-5,6,9,18-tetrahydro-10,17-methanodipyrido[1,2-b:3′,4′-k][1,2,5]triazacyclotridecine-11,13-dione] | > 2000 | 161
7 | O=C1c2c(O)c(=O)ccn2N2CN1C/C=C/CCc1cc(F)ccc1[C@@H]2c1ccccn1 (single isomer, unassigned) [Compound 57A, (16*R,E)-13-fluoro-4-hydroxy-16-(pyridin-2-yl)-7,10,11,16-tetrahydro-6,17-methanobenzo[k]pyrido[1,2-b][1,2,5]triazacyclotridecine-3,5-dione] | > 2000 | 32
8 | O=C1c2c(O)c(=O)ccn2N2CN1C/C=C/CCc1cc(F)ccc1[C@H]2c1ccccn1 (single isomer, unassigned) [Compound 57B, (16*S,E)-13-fluoro-4-hydroxy-16-(pyridin-2-yl)-7,10,11,16-tetrahydro-6,17-methanobenzo[k]pyrido[1,2-b][1,2,5]triazacyclotridecine-3,5-dione] | > 2000 | > 1000
9 | O=C1c2c(O)c(=O)ccn2N2CN1C/C=C/CCc1cc(F)c(F)cc1[C@@H]2c1ccccn1 (single isomer, unassigned) [Compound 58A, (16*R,E)-13,14-difluoro-4-hydroxy-16-(pyridin-2-yl)-7,10,11,16-tetrahydro-6,17-methanobenzo[k]pyrido[1,2-b][1,2,5]triazacyclotridecine-3,5-dione] | > 2000 | 44
10 | O=C1c2c(O)c(=O)ccn2N2CN1C/C=C/CCc1cc(F)c(F)cc1[C@H]2c1ccccn1 (single isomer, unassigned) [Compound 58B, (16*S,E)-13,14-difluoro-4-hydroxy-16-(pyridin-2-yl)-7,10,11,16-tetrahydro-6,17-methanobenzo[k]pyrido[1,2-b][1,2,5]triazacyclotridecine-3,5-dione] | > 2000 | > 1000
11 | O=C1c2c(O)c(=O)ccn2N2CN1C/C=C\COc1c(F)cccc1[C@@H]2c1cccc(F)c1 (single isomer, unassigned) [Compound 59B, (18*S,Z)-4-fluoro-18-(3-fluorophenyl)-12-hydroxy-6,9-dihydro-18H-10,17-methanobenzo[b]pyrido[1,2-f][1]oxa[5,6,9]triazacyclotridecine-11,13-dione] | > 2000 | 497
12 | O=C1c2c(O)c(=O)ccn2N2CN1C/C=C\COc1c(F)cccc1[C@H]2c1ccccc1 (single isomer, unassigned) [Compound 61A, (18*R,Z)-4-fluoro-12-hydroxy-18-phenyl-6,9-dihydro-18H-10,17-methanobenzo[b]pyrido[1,2-f][1]oxa[5,6,9]triazacyclotridecine-11,13-dione] | > 2000 | 5
13 | O=C1c2c(O)c(=O)ccn2N2CN1C/C=C\COc1c(F)cccc1[C@@H]2c1ccccc1 (single isomer, unassigned) [Compound 61B, (18*S,Z)-4-fluoro-12-hydroxy-18-phenyl-6,9-dihydro-18H-10,17-methanobenzo[b]pyrido[1,2-f][1]oxa[5,6,9]triazacyclotridecine-11,13-dione] | > 2000 | 155
14 | O=C1c2c(O)c(=O)ccn2N2CN1C/C=C\COc1ccccc1[C@H]2c1cccc(F)c1 (single isomer, unassigned) [Compound 63A, (18*R,Z)-18-(3-fluorophenyl)-12-hydroxy-6,9-dihydro-18H-10,17-methanobenzo[b]pyrido[1,2-f][1]oxa[5,6,9]triazacyclotridecine-11,13-dione] | > 2000 | > 1000
15 | O=C1c2c(O)c(=O)ccn2N2CN1C/C=C\COc1ccccc1[C@@H]2c1cccc(F)c1 (single isomer, unassigned) [Compound 63B, (18*S,Z)-18-(3-fluorophenyl)-12-hydroxy-6,9-dihydro-18H-10,17-methanobenzo[b]pyrido[1,2-f][1]oxa[5,6,9]triazacyclotridecine-11,13-dione] | > 2000 | 13
16 | O=C1c2c(O)c(=O)ccn2N2CN1CC/C=C/CCOc1ccccc1[C@H]2c1ccccc1 (single isomer, unassigned) [Compound 65A, (2*R,*Z)-15-hydroxy-2-phenyl-12,13,14,16-tetrahydro-11H-4-oxa-1(1,3)-pyrido[2,1-f][1,2,4]triazina-3(1,2)-benzenacyclodecaphan-7-ene-14,16-dione] | > 10000 | > 5000
17 | O=C1c2c(O)c(=O)ccn2N2CN1CC/C=C\CCOc1ccccc1[C@H]2c1ccccc1 (single isomer, unassigned) [Compound 65C, (2*R,*E)-15-hydroxy-2-phenyl-12,13,14,16-tetrahydro-11H-4-oxa-1(1,3)-pyrido[2,1-f][1,2,4]triazina-3(1,2)-benzenacyclodecaphan-7-ene-14,16-dione] | > 20000 | 7890
18 | O=C1c2c(O)c(=O)ccn2N2CN1CC/C=C/CCOc1ccccc1[C@@H]2c1ccccc1 (single isomer, unassigned) [Compound 65D, (2*S,*E)-15-hydroxy-2-phenyl-12,13,14,16-tetrahydro-11H-4-oxa-1(1,3)-pyrido[2,1-f][1,2,4]triazina-3(1,2)-benzenacyclodecaphan-7-ene-14,16-dione] | > 2000 | 66
19 | O=C1c2c(O)c(=O)ccn2N2CN1CCC/C=C/COc1ccccc1[C@H]2c1ccccc1 (single isomer, unassigned) [Compound 67A, (2*R,*Z)-15-hydroxy-2-phenyl-12,13,14,16-tetrahydro-11H-4-oxa-1(1,3)-pyrido[2,1-f][1,2,4]triazina-3(1,2)-benzenacyclodecaphan-6-ene-14,16-dione] | > 2000 | > 1000
20 | O=C1c2c(O)c(=O)ccn2N2CN1CCC/C=C/COc1ccccc1[C@@H]2c1ccccc1 (single isomer, unassigned) [Compound 67B, (2*S,*Z)-15-hydroxy-2-phenyl-12,13,14,16-tetrahydro-11H-4-oxa-1(1,3)-pyrido[2,1-f][1,2,4]triazina-3(1,2)-benzenacyclodecaphan-6-ene-14,16-dione] | > 2000 | > 1000
21 | O=C1c2c(O)c(=O)ccn2N2CN1C/C=C\COc1cc(F)c(F)cc1[C@@H]2c1ccccn1 (single isomer, unassigned) [Compound 70A, (18*R,*Z)-2,3-difluoro-12-hydroxy-18-(pyridin-2-yl)-6,9-dihydro-18H-10,17-methanobenzo[b]pyrido[1,2-f][1]oxa[5,6,9]triazacyclotridecine-11,13-dione] | > 20000 | > 10000
22 | O=C1c2c(O)c(=O)ccn2N2CN1C/C=C\COc1cc(F)c(F)cc1[C@H]2c1ccccn1 (single isomer, unassigned) [Compound 70B, (18*S,*Z)-2,3-difluoro-12-hydroxy-18-(pyridin-2-yl)-6,9-dihydro-18H-10,17-methanobenzo[b]pyrido[1,2-f][1]oxa[5,6,9]triazacyclotridecine-11,13-dione] | > 200 | 32
23 | O=C1c2c(O)c(=O)ccn2N2CN1C/C=C\COc1cc(F)ccc1[C@@H]2c1ccccn1 (single isomer, unassigned) [Compound 71A, (18*R,*Z)-3-fluoro-12-hydroxy-18-(pyridin-2-yl)-6,9-dihydro-18H-10,17-methanobenzo[b]pyrido[1,2-f][1]oxa[5,6,9]triazacyclotridecine-11,13-dione] | > 200 | 34
24 | O=C1c2c(O)c(=O)ccn2N2CN1C/C=C\COc1cc(F)ccc1[C@H]2c1ccccn1 (single isomer, unassigned) [Compound 71B, (18*S,*Z)-3-fluoro-12-hydroxy-18-(pyridin-2-yl)-6,9-dihydro-18H-10,17-methanobenzo[b]pyrido[1,2-f][1]oxa[5,6,9]triazacyclotridecine-11,13-dione] | > 20000 | 7690
